Source: US10947242B2, “[1,2,4]triazolo[1,5and#8208;A]pyrimidine compounds as PDE2 inhibitors” (Janssen Pharmaceutica NV, priority 2016, dated 2021)
Read-outs that look alike come from different tables or passages of the source.

Legend:
[1] = target: T1, Human recombinant PDE2A (hPDE2A) (Homo sapiens, UniProt O00408); assay: In vitro assay PDE2A (SPA, 3H-cGMP hydrolysis); assay type: biochemical; details: for Emax: read-out: hPDE2A Emax
T1 construct: His tag (inferred from metal chelate purification); made in house; host or cells: Sf9 insect cells (baculovirus)
T1 sequence (O00408 whole entry): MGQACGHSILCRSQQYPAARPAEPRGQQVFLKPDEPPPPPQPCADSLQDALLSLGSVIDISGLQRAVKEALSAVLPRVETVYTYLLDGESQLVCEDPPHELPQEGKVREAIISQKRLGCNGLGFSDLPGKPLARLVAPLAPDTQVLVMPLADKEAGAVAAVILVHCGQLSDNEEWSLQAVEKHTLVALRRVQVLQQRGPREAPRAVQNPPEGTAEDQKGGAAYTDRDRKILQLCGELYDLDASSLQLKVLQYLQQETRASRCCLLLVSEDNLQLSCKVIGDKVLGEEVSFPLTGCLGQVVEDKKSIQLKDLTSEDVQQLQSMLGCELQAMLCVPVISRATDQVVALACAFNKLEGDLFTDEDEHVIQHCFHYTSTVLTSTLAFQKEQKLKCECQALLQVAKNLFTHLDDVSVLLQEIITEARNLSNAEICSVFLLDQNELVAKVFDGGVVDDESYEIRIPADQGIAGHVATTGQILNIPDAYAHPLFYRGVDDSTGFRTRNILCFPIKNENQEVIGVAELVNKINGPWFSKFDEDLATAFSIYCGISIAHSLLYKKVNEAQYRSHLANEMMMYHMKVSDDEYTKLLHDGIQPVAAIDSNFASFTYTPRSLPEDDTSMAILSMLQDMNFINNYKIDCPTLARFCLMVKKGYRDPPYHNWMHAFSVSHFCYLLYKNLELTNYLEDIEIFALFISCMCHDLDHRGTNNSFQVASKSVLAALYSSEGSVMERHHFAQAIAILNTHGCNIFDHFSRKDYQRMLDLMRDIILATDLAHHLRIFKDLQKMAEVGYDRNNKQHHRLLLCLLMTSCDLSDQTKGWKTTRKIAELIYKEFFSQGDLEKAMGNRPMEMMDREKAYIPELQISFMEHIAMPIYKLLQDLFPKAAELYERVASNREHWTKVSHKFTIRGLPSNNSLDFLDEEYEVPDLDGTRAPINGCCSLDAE

[2] = target: T2, Human recombinant PDE3A (hPDE3A) (Homo sapiens, UniProt Q14432); assay: In vitro assay PDE3A (SPA, 3H-cAMP hydrolysis); assay type: biochemical; details: for IC50: hPDE3B pIC50; for Emax: read-out: hPDE3B Emax, read-out: Emax;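 for Emax: the method names PDE3A and the table heading PDE3B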
T2 construct: purchased Scottish Biomedical; host or cells: Sf9 insect cells
T2 sequence (Q14432 whole entry): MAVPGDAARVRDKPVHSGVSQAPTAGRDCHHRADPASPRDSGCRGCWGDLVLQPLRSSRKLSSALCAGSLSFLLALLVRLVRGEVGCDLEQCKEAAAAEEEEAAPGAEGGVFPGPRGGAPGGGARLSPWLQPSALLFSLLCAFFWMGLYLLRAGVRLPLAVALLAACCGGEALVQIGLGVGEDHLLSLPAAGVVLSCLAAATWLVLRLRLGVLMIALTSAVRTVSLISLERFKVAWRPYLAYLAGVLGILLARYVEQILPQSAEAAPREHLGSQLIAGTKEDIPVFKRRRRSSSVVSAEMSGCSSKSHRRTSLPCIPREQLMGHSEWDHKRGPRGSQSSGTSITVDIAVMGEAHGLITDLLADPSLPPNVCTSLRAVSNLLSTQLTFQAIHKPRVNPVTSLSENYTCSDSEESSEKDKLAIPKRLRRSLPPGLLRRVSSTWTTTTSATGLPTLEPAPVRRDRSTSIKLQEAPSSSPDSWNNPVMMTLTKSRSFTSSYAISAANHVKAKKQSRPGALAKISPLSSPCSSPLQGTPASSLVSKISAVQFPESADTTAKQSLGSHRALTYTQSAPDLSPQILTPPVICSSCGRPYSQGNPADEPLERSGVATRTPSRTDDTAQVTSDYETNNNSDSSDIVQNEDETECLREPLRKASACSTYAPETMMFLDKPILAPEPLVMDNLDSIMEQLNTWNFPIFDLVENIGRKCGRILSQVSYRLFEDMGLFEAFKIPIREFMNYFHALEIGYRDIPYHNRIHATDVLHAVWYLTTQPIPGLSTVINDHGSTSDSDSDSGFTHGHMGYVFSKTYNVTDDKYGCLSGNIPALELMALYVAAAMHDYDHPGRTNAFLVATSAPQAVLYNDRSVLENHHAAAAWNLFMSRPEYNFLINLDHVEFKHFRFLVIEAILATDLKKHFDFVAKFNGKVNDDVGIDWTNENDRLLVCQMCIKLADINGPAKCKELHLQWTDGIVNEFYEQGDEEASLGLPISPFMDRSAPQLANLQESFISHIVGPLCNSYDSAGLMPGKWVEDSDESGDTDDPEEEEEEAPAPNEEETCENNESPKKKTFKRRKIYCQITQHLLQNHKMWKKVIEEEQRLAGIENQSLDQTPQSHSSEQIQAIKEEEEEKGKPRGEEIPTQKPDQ
Summary of the method: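 Human PDE3A, cloned from brain, as partially purified Sf9 lysate. Substrate 0.4 μM cAMP plus [3H]-cAMP (2.4 μCi/ml final) in 50 mM Tris pH 7.8, 8.3 mM MgCl2, 1.7 mM EGTA, 60 min at room temperature, 1% DMSO final. Hydrolysis read by SPA scintillation counting against no-enzyme blanks and DMSO controls.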

[3] = target: T3, Human recombinant PDE10A (hPDE10A) (Homo sapiens, UniProt Q9Y233); assay: In vitro assay PDE10A, human clone (SPA, 3H-cAMP hydrolysis); assay type: biochemical; details: for Emax: read-out: hPDE10A2 or rPDE10A2 Emax
T3 construct: His tag (inferred from metal chelate purification); made in house; host or cells: Sf9 insect cells (baculovirus)
T3 sequence (Q9Y233 267-1055): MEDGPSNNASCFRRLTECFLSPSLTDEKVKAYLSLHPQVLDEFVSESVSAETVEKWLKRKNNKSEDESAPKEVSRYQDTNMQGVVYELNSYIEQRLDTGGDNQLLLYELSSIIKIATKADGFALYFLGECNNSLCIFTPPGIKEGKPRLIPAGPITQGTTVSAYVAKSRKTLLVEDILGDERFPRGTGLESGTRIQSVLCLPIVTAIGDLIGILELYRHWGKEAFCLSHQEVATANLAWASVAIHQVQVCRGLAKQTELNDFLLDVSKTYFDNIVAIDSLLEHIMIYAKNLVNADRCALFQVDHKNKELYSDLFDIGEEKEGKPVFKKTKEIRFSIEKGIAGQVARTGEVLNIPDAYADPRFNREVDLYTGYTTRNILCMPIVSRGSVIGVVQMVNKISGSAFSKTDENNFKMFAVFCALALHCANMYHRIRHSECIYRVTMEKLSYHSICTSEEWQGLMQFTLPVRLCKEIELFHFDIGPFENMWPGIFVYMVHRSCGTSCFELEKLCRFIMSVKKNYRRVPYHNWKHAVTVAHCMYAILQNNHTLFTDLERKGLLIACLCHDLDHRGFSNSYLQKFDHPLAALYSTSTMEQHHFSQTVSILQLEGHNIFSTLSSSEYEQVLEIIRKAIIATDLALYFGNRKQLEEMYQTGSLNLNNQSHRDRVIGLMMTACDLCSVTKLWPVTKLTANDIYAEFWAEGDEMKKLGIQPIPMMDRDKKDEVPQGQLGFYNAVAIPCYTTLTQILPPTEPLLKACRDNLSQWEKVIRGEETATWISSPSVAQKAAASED
Summary of the method: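 Human recombinant PDE10A was expressed in Sf9 cells via baculovirus and incubated with compound in 50 mM Tris pH 7.8, 8.3 mM MgCl2, 1.7 mM EGTA. Substrate was 60 nM cAMP plus 0.008 μCi 3H-cAMP for 60 min at room temperature, read by SPA scintillation counting. Controls used 1% DMSO, and blanks omitted enzyme.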

[4] = target: T4, PDE2A (Rattus norvegicus, UniProt Q01062); assay: PDE2 occupancy by test compounds, ex-vivo autoradiography with [3H]B-17a; assay type: in vivo, Male Wistar rats; details: 10 mg/kg, route PO (oral), percentage receptor occupancy, ex-vivo autoradiography, striatum
T4 construct: Twenty μm-thick striatal sections were cut; from tissue; host or cells: rat brain, striatal sections
T4 sequence (Q01062 1-928): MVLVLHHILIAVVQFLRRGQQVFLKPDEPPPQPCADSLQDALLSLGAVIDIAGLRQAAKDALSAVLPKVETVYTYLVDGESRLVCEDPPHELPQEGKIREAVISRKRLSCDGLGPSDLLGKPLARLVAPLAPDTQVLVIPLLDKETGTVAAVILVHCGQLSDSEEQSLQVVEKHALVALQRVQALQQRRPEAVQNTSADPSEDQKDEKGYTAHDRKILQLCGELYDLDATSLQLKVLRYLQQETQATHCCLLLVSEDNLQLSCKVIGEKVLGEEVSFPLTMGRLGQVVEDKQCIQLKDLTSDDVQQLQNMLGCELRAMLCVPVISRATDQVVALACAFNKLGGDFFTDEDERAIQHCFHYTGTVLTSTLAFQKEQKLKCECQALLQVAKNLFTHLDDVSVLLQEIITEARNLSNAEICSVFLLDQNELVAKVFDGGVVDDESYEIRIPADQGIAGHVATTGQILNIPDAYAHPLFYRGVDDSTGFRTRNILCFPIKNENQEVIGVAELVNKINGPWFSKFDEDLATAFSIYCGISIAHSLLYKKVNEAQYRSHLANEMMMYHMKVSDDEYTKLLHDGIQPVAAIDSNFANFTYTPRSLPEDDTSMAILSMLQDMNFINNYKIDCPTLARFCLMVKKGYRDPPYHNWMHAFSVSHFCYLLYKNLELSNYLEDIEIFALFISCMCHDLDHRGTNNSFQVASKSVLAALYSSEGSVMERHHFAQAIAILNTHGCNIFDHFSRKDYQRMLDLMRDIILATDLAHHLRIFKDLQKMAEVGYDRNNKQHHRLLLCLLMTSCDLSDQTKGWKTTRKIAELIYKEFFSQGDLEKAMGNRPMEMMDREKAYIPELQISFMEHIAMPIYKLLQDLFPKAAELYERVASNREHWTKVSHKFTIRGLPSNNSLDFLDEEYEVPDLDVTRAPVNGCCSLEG

[5] = read-out: hPDE2A pIC50 (converted)
[6] = human clone by default (no (r) mark)
[7] = human clone by default (no (r) mark), read-out: hPDE10A2 or rPDE10A2 pIC50 (converted)
[8] = hPDE10A2 or rPDE10A2 pIC50, human clone by default (no (r) mark)

Row | receptor occupancy at 10 mg/kg ([4]; po) [%] | SMILES | Emax [1] [%] | IC50 [1, 5] [nM] | IC50 ([2]; read-out: pIC50 (converted)) [nM] | Emax [2] [%] | Emax [3, 6] [%] | IC50 [3, 7] [nM] | receptor occupancy at 10 mg/kg [4] [%] | IC50 ([1]; hPDE2A pIC50) [nM] | IC50 [2] [nM] | IC50 [3, 8] [nM]
1 | 23 | Cc1cc(C(=O)N2CC[C@@H](C)[C@H](c3cc(C)nc4ncnn34)C2)cc(OC(F)F)n1 [Compound 275] | 100 | 2.82 | 977 | 92 | 100 | 28.8 |  |  |  | 
2 | -4 | C[C@@H]1CCN(C(=O)c2cc(C3CC3)ncc2F)C[C@@]1(F)c1cc(C(F)F)nc2ncnn12 [Compound 277] | 99 | 75.9 | > 10000 | 14 | 27 | > 10000 |  |  |  | 
3 | 30 | Cc1cc(C(=O)N2CC[C@@H](C)[C@H](c3cc(C(F)F)nc4ncnn34)C2)c(F)c(C2CC2)n1 [Compound 278] | 99 | 0.933 | 708 | 97 | 99 | 145 |  |  |  | 
4 | -12 | Cc1cc([C@@H]2CN(C(=O)c3cc(C4CC4)ncc3C(F)(F)F)CC[C@H]2C)n2ncnc2n1 [Compound 283] | 100 | 8.51 | > 10000 | 38 | 98 | 178 |  |  |  | 
5 | 16 | COc1cc(C(=O)N2CC[C@@H](C)[C@H](c3cc(C(F)F)nc4ncnn34)C2)cc(OC)n1 [Compound 284] | 101 | 1.7 | 1260 | 89 | 98 | 55 |  |  |  | 
6 |  | Cc1cc(C(=O)N2[C@H]3CC[C@H](c4cc(C(F)F)nc5ncnn45)[C@@H]2CC3)cc(C(F)(F)F)n1 [Compound 286] | 101 | 6.92 | > 10000 | 14 | 79 | 2240 | 5 |  |  | 
7 |  | COc1cc(C(=O)N2[C@H]3CC[C@H](c4cc(C(F)F)nc5ncnn45)[C@@H]2CC3)cc(C)n1 [Compound 290] | 98 | 5.89 | 6920 | 53 | 89 | 1410 | -3 |  |  | 
8 |  | O=C(c1ccc2cccn2c1)N1[C@H]2CC[C@H](c3cc(C(F)F)nc4ncnn34)[C@@H]1CC2 [Compound 291] | 101 | 2.69 | 2630 | 86 | 95 | 513 | 38 |  |  | 
9 |  | COc1c(C)cc(C(=O)N2[C@H]3CC[C@H](c4cc(C(F)F)nc5ncnn45)[C@@H]2CC3)cc1C [Compound 292] | 100 | 2.51 | 4680 | 73 | 94 | 724 | 23 |  |  | 
10 |  | Cc1cc(C(=O)N2[C@H]3CC[C@H](c4cc(C(F)F)nc5ncnn45)[C@@H]2CC3)cc(OC(F)F)n1 [Compound 293] | 100 | 11.2 | 3470 | 80 | 90 | 1020 | 6 |  |  | 
11 |  | Cc1cc(C(=O)N2[C@H]3CC[C@H](c4cc(C(F)F)nc5ncnn45)[C@@H]2CC3)cc(C(F)F)n1 [Compound 294] | 99 | 10.7 | > 10000 | 14 | 81 | 2090 | 17 |  |  | 
12 |  | COc1cccc2c1OCC(C(=O)N1[C@H]3CC[C@H](c4cc(C(F)F)nc5ncnn45)[C@@H]1CC3)=C2 [Compound 296] | 99 | 0.457 | 794 | 93 | 100 | 120 | 88 |  |  | 
13 |  | Cn1cc(C(=O)N2[C@H]3CC[C@H](c4cc(C(F)F)nc5ncnn45)[C@@H]2CC3)c2ccccc21 [Compound 297] | 97 | 2.34 | 5890 | 62 | 96 | 589 | -2 |  |  | 
14 |  | Cc1cc(C(=O)N2[C@H]3CC[C@H](c4cc(C(F)F)nc5ncnn45)[C@@H]2CC3)cc(C)c1C#N [Compound 299] | 99 | 7.76 | > 10000 | 40 | 84 | 2140 | 31 |  |  | 
15 |  | Cn1c(C(=O)N2[C@H]3CC[C@H](c4cc(C(F)F)nc5ncnn45)[C@@H]2CC3)cc2ccccc21 [Compound 300] | 100 | 6.46 | 2000 | 88 | 80 | 2880 | -11 |  |  | 
16 |  | COc1cc(C(=O)N2[C@H]3CC[C@H](c4cc(C(F)F)nc5ncnn45)[C@@H]2CC3)cc(OC)n1 [Compound 301] | 100 | 8.13 | 6310 | 62 | 89 | 1260 | -7 |  |  | 
17 |  | Cc1cc(C)cc(C(=O)N2[C@H]3CC[C@H](c4cc(C(F)F)nc5ncnn45)[C@@H]2CC3)c1 [Compound 302] | 101 | 6.46 | 7940 | 59 | 93 | 891 | 1 |  |  | 
18 |  | Cc1nc2ccc(C(=O)N3[C@H]4CC[C@H](c5cc(C(F)F)nc6ncnn56)[C@@H]3CC4)cc2o1 [Compound 303] | 99 | 7.08 | 6610 | 57 | 95 | 537 | 17 |  |  | 
19 |  | Cc1cc2ccc(C(=O)N3[C@H]4CC[C@H](c5cc(C(F)F)nc6ncnn56)[C@@H]3CC4)cn2c1 [Compound 307] | 99 |  |  | 88 | 97 |  | 8 | 9.12 | 1480 | 603
20 |  | O=C(c1ccc2ccccc2n1)N1[C@H]2CC[C@H](c3cc(C(F)F)nc4ncnn34)[C@@H]1CC2 [Compound 308] | 98 |  |  | 72 | 66 |  | 18 | 17.4 | 4570 | 6760
21 |  | O=C(c1cnc2c(F)cccc2c1)N1[C@H]2CC[C@H](c3cc(C(F)F)nc4ncnn34)[C@@H]1CC2 [Compound 309] | 100 | 2.95 | 7590 | 53 | 86 | 1510 | 12 |  |  | 
22 |  | O=C(c1ccc2ncccc2c1)N1[C@H]2CC[C@H](c3cc(C(F)F)nc4ncnn34)[C@@H]1CC2 [Compound 311] | 96 | 1.1 | 7410 | 62 | 96 | 427 | -1 |  |  | 
23 |  | O=C(c1ccc2ncc(F)cc2c1)N1[C@H]2CC[C@H](c3cc(C(F)F)nc4ncnn34)[C@@H]1CC2 [Compound 312] | 99 | 21.9 | > 10000 | 37 | 93 | 617 | -16 |  |  | 
24 |  | O=C(c1cnc2ccccc2c1)N1[C@H]2CC[C@H](c3cc(C(F)F)nc4ncnn34)[C@@H]1CC2 [Compound 313] | 97 | 1.35 | 6030 | 61 | 86 | 1230 | 28 |  |  | 
